Test results: patent US6540995B1, “Encapsulated cells producing cytochrome P450” (priority 1996, dated 2003)

Tests used:
[1] = test system: breast cancer cells transfected with the CYP2B1 gene; settings: another study; cited from earlier work
[2] = test system: breast cancer cells transfected with the CYP2B1 gene; settings: another study; cited from earlier work; remark: listed apart in the source
[3] = after administration of the drug to patients (Wright et al. 1995); cited from earlier work

Method for CYP2B1 expressing cells: After five additional days the cells were trypsinised and an aliquot mixed with the same amount of 0.4% Giemsa in PBS, incubated for 1 min and the living cells counted.

SMILES: O=P1(N(CCCl)CCCl)NCCCO1 (stereo not shown) [cyclophosphamide]
- effect on CYP2B1 transfected breast cancer cells [1]: cell killing
- effect on tumours after implantation in nude mice [2]: tumour regression
- sensitivity of CYP2B1 expressing cells compared with cells not expressing CYP2B1 (CYP2B1 expressing cells): tenfold higher sensitivity

SMILES: O=P1(NCCCl)OCCCN1CCCl (stereo not shown) [ifosfamide]
- plasma drug concentrations [3]: 100 to 500 µM
